From patent publication US20060185030A1, “Cytokinin response regulators and uses thereof” (priority 2001, published 2006)

How the values were obtained:
RD29A promoter = experiment: Arabidopsis mesophyll protoplast transient expression assay, RD29A-LUC reporter; type: cell-based; settings: 100 μM ABA, 3 hours
ARR6 promoter = experiment: Arabidopsis mesophyll protoplast transient expression assay, ARR6-LUC reporter; type: cell-based; settings: for activity of ARR6-LUC (hormone specificity): 100 nM t-zeatin, 1 μM IAA or 100 μM ABA, 3 hours of incubation; for induction of the reporter gene ARR6-LUC by cytokinin analogues: 100 nM, FIG. 1C; for activation of ARR6-LUC by over-expressed effector: absence of exogenous cytokinin
Description: To elucidate the regulatory circuitry in cytokinin signal transduction, a leaf cell assay based on cytokinin inducible transcription in Arabidopsis mesophyll protoplasts was developed. The 2.4 kb promoter of an Arabidopsis cytokinin primary response gene (SEQ ID NO.: 1), encoding the response regulator 6 (ARR6), was fused to the firefly luciferase (LUC) reporter. In FIG. 1A, transfected protoplasts were incubated with or without 100 nM t-zeatin, 1 μM indole-3-acetic acid (IAA), or 100 μM ABA. After 3 hours of incubation, LUC and GUS activities were determined.
(§1) Arabidopsis Bensheim (BE) protoplasts were isolated and transfected as described with some modifications (Kovtun et al., Proc. Natl. Acad. Sci. USA 97: 2940-5 2000). […] For instance, in the experiments shown in FIG. 1A, protoplasts (4×10^4) were transfected with 2 μg of UBQ10-GUS (internal control) and 20 μg of ARR6-LUC, GH3-LUC, or RD29ALUC plasmid DNA. Transfected protoplasts were incubated at 1×10^4 per mil with/without 1-100 nM of t-zeatin for 3-6 hours under the light at 23° C. The UBQ10-GUS construct was used as an internal control to normalize the variations of each transfection in cell numbers, transformation efficiency and cell viability. […] GFP fluorescence was observed by either Nikon TE200 fluorescent microscopy or Leica TCSNT confocal microscopy.

GH3 promoter = experiment: Arabidopsis mesophyll protoplast transient expression assay, GH3-LUC reporter; type: cell-based; settings: 1 μM IAA, 3 hours
Arabidopsis seedlings = experiment: Seedling cytokinin response assay; type: in vivo; settings: medium with 0.15 mg/L IAA alone or with 0.15 mg/L IAA and 5 mg/L 2IP, 14 days
From the text: In tissue culture, induction of cell proliferation and subsequent shoot formation require cytokinin. To determine whether the same cytokinin signalling pathway is responsible for transcription regulation, cell proliferation, shoot meristem initiation, and leaf formation, we developed a seedling cytokinin response assay. In FIGS. 4A and 4B, Arabidopsis seedlings were transformed with Agrobacteria carrying GFP, CKI1, CKI1 (H405Q), ARR2, and ARR6 constructs in the mini-binary vector pCB302 (Xiang et al., Plant Mol. Biol. 40: 711-7, 1999). Seedlings transformed with the Agrobacteria carrying the binary vector pCB301 […] a Bar selection marker were used as a transformation control (vector). The transformed seedlings were selected with glufosinate ammonium (10 μg/ml) and maintained on medium with auxin (IAA) only (FIG. 4A, +IAA, −2IP) or with auxin and cytokinin (FIG. 4B, +IAA, +2IP) for 14 days. The transformed tissues were mostly derived from the shoot apical meristem. […] Both CKI1 and ARR2 promoted extensive cell proliferation and shoot formation even without exogenous cytokinin. The experiments were repeated three times with similar results. […] The results of this cytokinin seedling assay are consistent with those from protoplast transient expression analyses based on transcription. […]

AHP1-GFP = settings: 100 nM t-zeatin, 30 minutes
Description: (§2) To gain further in vivo support for the involvement of AHPs in cytokinin signalling, the action of AHP1-GFP in transfected protoplast in the absence or presence of cytokinin was followed using fluorescence microscopy. Specifically, protoplasts were transfected with AHP1-GFP, AHP2-GFP, or AHP5-GFP and incubated for 3 hours to allow sufficient expression.
as §1

AHP5-GFP = settings: 100 nM t-zeatin, 30 minutes
Description: as §2, §1

CKI1-GFP = experiment: GFP fusion expression and localization in transfected protoplasts (confocal microscopy); type: cell-based, Arabidopsis; settings: tunicamycin 1 μg/ml, 12 hours
Description: To gain insight into where the cytokinin signalling is perceived, the sub-cellular localization of CKI1 was examined using the CKI1-GFP fusion. We first confirmed that CKI1-GFP acted similarly as CKI1-HA in the protoplast assay based on ARR6-LUC activation (FIG. 1D). […] Specifically, protoplasts were transfected with CKI1-GFP or various GFP marker plasmid DNA. Tunicamycin (1 μg/ml) treatment was for 12 hours. The transfected protoplasts were analyzed with a confocal microscope. The subcellular GFP markers are “CAT-GFP” for the cytosol, “ER-GFP” for the endoplasmic reticulum, and “N-GFP” (HSP-GFP) for the nucleus. Since the N-terminus of CKI1 is replete with putative glycosylation sites, the effect of a glycosylation inhibitor, tunicamycin, in CKI1-GFP expression, localization or function was examined.

CC1=CC(=O)CC(C)(C)[C@@]1(O)/C=C/C(C)=C\C(=O)O [ABA, abscisic acid]
RD29A promoter induction (RD29A promoter): solely induced | activity of ARR6-LUC (hormone specificity) (ARR6 promoter): not by other plant hormones

c1ccc(CNc2ncnc3nc[nH]c23)cc1 [BA, benzyladenine]
induction of the reporter gene ARR6-LUC by cytokinin analogues (ARR6 promoter): induced

O=C(O)Cc1c[nH]c2ccccc12 [IAA, indole-3-acetic acid]
GH3 promoter activation (GH3 promoter): only activated | activity of ARR6-LUC (hormone specificity) (ARR6 promoter): not by other plant hormones | callus / shoot formation of GFP control transformed seedlings (Arabidopsis seedlings): green callus formation

C/C(=C\CNc1ncnc2nc[nH]c12)CO [t-zeatin, trans-zeatin]
AHP1-GFP localization after cytokinin treatment (AHP1-GFP): translocated into the nucleus | AHP5-GFP cytokinin-dependent translocation (AHP5-GFP): not | activity of ARR6-LUC (hormone specificity) (ARR6 promoter): specifically induced | induction of the reporter gene ARR6-LUC by cytokinin analogues (ARR6 promoter): induced

tunicamycin
expression of CKI1-GFP (CKI1-GFP): completely abolished | expression of other GFP constructs (CKI1-GFP; CAT-GFP, ER-GFP, N-GFP markers): did not affect

B1: ARR1: Arabidopsis B-type response regulator (SEQ ID NO.: 2), over-expressed from effector plasmid (protein, listed as Arabidopsis thaliana)
chain: MALSLLRKNKHGFDIVISDVHMPDMDGFKLLEHVGLEMDLPVIMMSADDSKSVVLKGVTHGAVDYLIKPVRMEALKNIWQHVVRKRRSEWSVPEHSGSIEETGERQQQQHRGGGGGAAVSGGEDAVDDNSSSVNEGNNWRSSSRKRKDEEGEEQGDDKDEDASNLKKPRVVWSVELHQQFVAAVNQLGVEKAVPKKILELMNVPGLTRENVASHLQKYRIYLRRLGGVSQHQGNLNNSFMTGQDASFGPLSTLNGFDLQALAVTGQLPAQSLAQLQAAGLGRPAMVSKSGLPVSSIVDERSIFSFDNTKTRFGEGLGHHGQQPQQQPQMNLLHGVPTGLQQQLPMGNRMSIQQQIAAVRAGNSVQNNGMLMPLAGQQSLPRGPPPMLTSSQSSIRQPMLSNRISERSGFSGRNNIPESSRVLPTSYTNLTTQHSSSSMPYNNFQPELPVNSFPLASAPGISVPVRKATSYQEEVNSSEAGFTTPSYDMFTTRQNDWDLRNIGIAFDSHQDSESAAFSASEAYSSSSMSRHNTTVAATEHGRNHQQPPSGMVQHHQVYADGNGGSVRVKSERVATDTATMAFHEQYSNQEDLMSALLKQEGIAPVDGEFDFDAYSIDNIPV
activation of ARR6-LUC by over-expressed effector (ARR6 promoter): about 40 fold

B2: ARR10: Arabidopsis B-type response regulator (SEQ ID NO.: 9), over-expressed from effector plasmid (protein, listed as Arabidopsis thaliana)
chain: MTMEQEIEVLDQFPVGMRVLAVDDDQTCLRILQTLLQRCQYHVTTTNQAQTALELLRENKNKFDLVISDVDMPDMDGFKLLELVGLEMDLPVIMLSAHSDPKYVMKGVKHGACDYLLKPVRIEELKNIWQHVVRKSKLKKNKSNVSNGSGNCDKANRKRKEQYEEEEEEERGNDNDDPTAQKKPRVLWTHELHNKFLAAVDHLGVERAVPKKILDLMNVDKLTRENVASHLQKFRVALKKVSDDAIQQANRAAIDSHFMQMNSQKGLGGFYHHHRGIPVGSGQFHGGTTMMRHYSSNRNLGRLNSLGAGMFQPVSSSFPRNHNDGGNILQGLPLEELQINNNINRAFPSFTSQQNSPMVAPSNLLLLEGNPQSSSLPSNPGFSPHFEISKRLEHWSNAALSTNIPQSDVHSKPDTLEWNAFCDSASPLVNPNLDTNPASLCRNTGFGSTNAAQTDFFYPLQMNQQPANNSGPVTEAQLFRSSNPNEGLLMGQQKLQSGLMASDAGSLDDIVNSLMTQEQSQSDFSEGDWDLDGLAHSEHAYEKLHFPFSLSA
activation of ARR6-LUC by over-expressed effector (ARR6 promoter): about 10 fold | further enhancement by cytokinin of effector's effect on ARR6-LUC activity (ARR6 promoter; with cytokinin, relative to effector alone): 10-20 fold

B3: ARR2: Arabidopsis B-type response regulator (SEQ ID NO.: 3), over-expressed from effector plasmid (protein, listed as Arabidopsis thaliana)
chain: MVNPGHGRGPDSGTAAGGSNSDPFPANLRVLVVDDDPTCLMILERMLMTCLYREQRAHCLCFGRTKNGFDIVISDVHMPDMDGFKLLEHVGLEMDLPVINLNVLKPLVIVMSADDSKSVVLKGVTHGAVDYLIKPVRIEALKNIWQHVVRKKRNEWNVSEHSGGSIEDTGGDRDRQQQHREDADNNSSSVNEGNGRSSRKRKEEEVDDQGDDKEDSSSLKKPRVVWSVELHQQFVAAVNQLGVDSELKTCLLMHLCVSIGNIVEFQKYRIYLRRLGGVSQHQGNMNHSFMTGQDQSFGPLSSLNGFDLQSLAVTGQLPPQSLAQLQAAGLGRPTLAKPGMSVSPLVDQRSIFNFENPKIRFGDGHGQTMNNGNLLHGVPTGSHMRLRPGQNVQSSGMMLPVADQLPRGGPSMLPSLGQQPILSSSVSRRSDLTGALAVRNSIPETNSRVLPTTHSVFNNFPADLPRSSFPLASAPGISVPVSVSYQEEVNSSDAKGGSSAATAGFGNPSYDIFNDFPQHQQHNKNISNKLNDWDLRNMGLVFSSNQDAATATATAAFSTSEAYSSSSTQRKRRETDATVVGEHGQNLQSPSRNLYHLNHVFMDGGSVRVKSERVAETVTCPPANTLFHEQYNQEDLMSAFLKQV
activation of ARR6-LUC by over-expressed effector (ARR6 promoter): ~400 fold | activation of ARR6-LUC by over-expressed effector with cytokinin treatment (ARR6 promoter; with cytokinin (100 nM t-zeatin, 3 hours)): over 1000 fold
